Source: patent US10701931B2, “Mosquito activating formulations” (Commonwealth Scientific and Industrial Research Organisation, priority 2015, dated 2020)
Where “and” joins values, the source holds several entries; their conditions need not be identical. Identical values can stand only once.

Key:
C. annulirostis antennae = assay: Electroantennogram (EAG), non bloodfed females; parameters: species or system Culex annulirostris; details: n=5
Method: (§1) In order to assess Y-tube olfactometry experiments and field trials using an independent technique and to investigate the physiological basis of the observed activation and attraction behaviour, electroanntennogram (EAG) and electropalpogram (EPG) studies were performed on A. stephensi female mosquitoes. EAG studies were also performed on Anopheles farauti, Culex annulirostris and Aedes aegypti female mosquitoes.
(§2) Five to eight days Anopheles stephensi, two to fourteen days old Culex annulirostris and Aedes aegypti as well as four days old Anopheles faraulti non-blooded females, fed on 10% sucrose ad-libitum and then starved for >12 hours, were used. Mosquito head was excised and placed on the reference electrode coated with electrode gel (Parker Laboratories, Orange, N.J.). The distal end of the antennae or palp (<0.5 mm), cut to ensure a good electrical contact, were carefully placed on the recording electrode (Syntech, Germany). Signals were fed to a 10× amplifier and processed with IDAC 4 and PC-based interface and EAG software package (Syntech, Germany).
(§3) Thus 1-octen-3-ol was used in the EAG analysis as a positive control with thio compounds, (E and Z)-1-methylthio-1-propene, 3-methyl-thio-1-propanol, ally methyl sulphide, and carbon dioxide (5%) and mineral oil (negative control). […]

[1] = system: Anopheles farauti maxillary palps; assay: Electropalpogram (EPG), non bloodfed females; details: chemicals at 1/10 concentrations, CO2 5%; n=6
[2] = system: female Anopheles funestus antennae; details: cited from earlier work
[3] = system: female An. gambiae antennae; details: cited from earlier work
[4] = system: Anopheles stephensi maxillary palps; assay: Electropalpogram (EPG), non bloodfed females; details: chemicals at 1/10 concentrations, CO2 5%; n=7
Method: as §1, §2
(§4) Thus 1-octen-3-ol was used in the EAG analysis as a positive control with thio compounds, (E and Z)-1-methylthio-1-propene, 3-methyl-thio-1-propanol, ally methyl sulphide, and carbon dioxide (5%) and mineral oil (negative control). Pure chemicals were diluted in mineral oil to a 10 times v/v stock solution, from which decadal dilutions were made. A 10 μl aliquot of each solution was applied to a filter paper strip (1×3.5 cm; Whatman No. 4, Fisher Scientific) and the solvent was evaporated under a fume hood before inserting the paper strip into 5 ml disposable plastic syringe (Terumo syringes). A 500 ms pulse (5 ml/s) was delivered by stimulus controller CS-55 (Syntech, Germany) to deliver chemical stimulants to a humidified continuous air flow (10 ml/s) over the electrophysiolgical preparation. The chemicals were tested randomly and applied with 0.5-1 min intervals between stimulations.
(§5) Initial screening was performed using a 10 times dilution (1/10, v/v) source dose solution. Then 1-methylthio-1-propene and 1-octen-3-ol were selected for further dose-response study. A minimum of five mosquitoes were tested for each compound to calculate the average EAG amplitude±standard error (SE).

[5] = system: Anopheles stephensi antennae; assay: Electroantennogram (EAG), non bloodfed females; details: chemicals at 1/10 concentrations, CO2 5%; n=6
Method: as §1, §2, §4, §5

[6] = system: Anopheles farauti antennae; assay: Electroantennogram (EAG), non bloodfed females; details: chemicals at 1/10 concentrations, CO2 5%; n=5
Method: as §1, §2, §4, §5

Anopheles stephensi [7] = assay: Y-tube olfactometer, measurement of activation against clean air; format: in vivo; details: for Activation (against clean air): An. stephensi females
Method: A y-tube olfactometer was used to establish whether the volatile components of human breath elicited behavioural responses in the malaria vector Anopheles stephensi. The MR4 strain of An. stephensi (New Delhi, India) was maintained at 27° C., 70% RH, 12:12 L:D and 30 min dawn/dusk periods). 4 to 7 day old female mosquitoes, that had never received a blood meal, were used in experiments. Mosquitoes were maintained on 10% sugar solution ad libitum but starved for 12 hr prior to testing. The Y tube olfactometer is made entirely of glass and consists of a release chamber, the Y tube itself, and a trap chamber attached to each arm (FIG. 1). Each trap chamber is divided in two by a fine glass filter. On the far side of those filters, the trap chambers can connect to charcoal filters or to gas bags or gas cylinders. Air is pulled through the olfactometer by connecting the release chamber to a vacuum tap which vents the contents of the tube. Standard air flow (0.4 L/minute) is maintained using a 0.1-1.2 LPM flow meter (John Morris Pty, LTD). The air volume of the Y-tube is approximately 1 litre and is therefore replaced every 2.5 minutes. One arm is attached to a gas bag of clean air (from a compressed air cylinder) […]. The other arm remains connected to a carbon filter and the air inlet to give a plume of compressed air plus test stimuli (i.e. standard air concentration of CO2 only). 1 μl 10^−2 to 10^−5% test stimuli in mineral oil (Sigma Aldrich) was spotted on 1 cm^2 Whatman filter paper. Test stimuli was delivered by placing treated filter paper between the air inlet and the trap chamber to give a plume of compressed air plus test stimuli (i.e. standard air concentration of CO2 only). All experiments were run under PC2 quarantine conditions, at 27° C., 70% RH, under infrared light. Observers were always in the same position during the tests, at the trap chamber end of the olfactometer, between the 2 arms of the Y tube. Using an aspirator, 25-30 starved female An. stephensi were introduced into the release chamber (FIG. 1). […] After each test, mosquitoes were carefully aspirated from the apparatus by disconnecting constituent parts. The apparatus was flushed with clean air (charcoal filters only) for 5 minutes before the next batch of stimuli was introduced. A total of 10 replicates (different batches of mosquitoes) were run for each stimuli assessment. Treatment and control arms were alternated between replicates. After completion of 10 replicates, the apparatus was rinsed in acetone and allowed to dry overnight. Initial experiments were therefore less concerned with directional responses and more with establishing the range of doses that appeared to cause some form of excitation. Those initial experiments were conducted in comparison to a neutral control (a negative would be repellent) of clean air drawn through a charcoal filter. The test stimuli were tested against mosquitoes at serial dilutions in the range 10^−2 to 10^−5%. Once mosquitoes had stopped responding, the numbers in the olfactometer arms, base leg and release chamber were counted. Mosquitoes were assumed to have been “activated” if they moved into the Y tube arms.

Anopheles stephensi [8] = assay: Y-tube olfactometer, measurement of attraction against CO2/1-octen-3-ol positive control; format: in vivo
Method: Attraction to these components was compared to a standard “positive control” known to elicit a directional response in An. stephensi mosquitoes placed in an olfactometer. The standard used as a positive control is a mix of compressed air, 5% CO2 and an octenol source. Unpaired t-test was used to test for the differences in means for all data sets presented.
The MR4 strain of An. stephensi (New Delhi, India) was maintained at 27° C., 70% RH, 12:12 L:D and 30 min dawn/dusk periods). 4 to 7 day old female mosquitoes, that had never received a blood meal, were used in experiments. Mosquitoes were maintained on 10% sugar solution ad libitum but starved for 12 hr prior to testing.
The Y tube olfactometer is made entirely of glass and consists of a release chamber, the Y tube itself, and a trap chamber attached to each arm (FIG. 1). Each trap chamber is divided in two by a fine glass filter. On the far side of those filters, the trap chambers can connect to charcoal filters or to gas bags or gas cylinders. Air is pulled through the olfactometer by connecting the release chamber to a vacuum tap which vents the contents of the tube. Standard air flow (0.4 L/minute) is maintained using a 0.1-1.2 LPM flow meter (John Morris Pty, LTD). The air volume of the Y-tube is approximately 1 litre and is therefore replaced every 2.5 minutes.
1 μl 10^−4% 1-octen-3-ol in mineral oil (Sigma Aldrich) was spotted on 1 cm^2 Whatman filter paper.
5% CO2 by volume was added to a 10 L FlexFilm gasbag (SKC Inc.) of compressed air.
When a CO2/1-octen-3-ol mix was required, 5% CO2 was delivered by connecting the gas bag to the requisite Y tube arm and placing the 1-octen-3-ol treated filter paper between the gasbag inlet and the glass filter of the trap chamber.
All experiments were run under PC2 quarantine conditions, at 27° C., 70% RH, under infrared light. Observers were always in the same position during the tests, at the trap chamber end of the olfactometer, between the 2 arms of the Y tube.
Using an aspirator, 25-30 starved female An. stephensi were introduced into the release chamber (FIG. 1).
After each test, mosquitoes were carefully aspirated from the apparatus by disconnecting constituent parts. The apparatus was flushed with clean air (charcoal filters only) for 5 minutes before the next batch of stimuli was introduced.
A total of 10 replicates (different batches of mosquitoes) were run for each stimuli assessment. Treatment and control arms were alternated between replicates. After completion of 10 replicates, the apparatus was rinsed in acetone and allowed to dry overnight.
Once the range of doses that “activated” mosquitoes had been established, the capacity of those concentrations to initiate a directional response was tested. In this instance, experiments were conducted in comparison to a positive control of CO2/1-octen-3-ol [[…]]. […] A positive control was used to assess whether test stimuli were at least as attractive as a standard directional stimulus.

Total mosquito = assay: Field trial with CDC light traps, total mosquito catch; format: in vivo; details: CO2 alone (1 kg dry ice); CDC light trap, one night; treatment per Table 3
Method: Field trials based on an imperfect Latin square design compared the attraction of An. farauti to MTPE with and without CO2. Treatments included CO2 alone, CO2 in combination with MTPE lure, or MTPE lure alone. Centres for Disease Control and Prevention (CDC) light traps were used to deliver MTPE lures and/or CO2. MTPE lures consisted of 500 μl of MTPE in mineral oil, 10-100,000 ppm spread on filter paper. MTPE/mineral oil mixtures were spread on filter paper, rolled into a tight wick, and inserted into a specimen tube. Specimen tubes where then wired to a CDC trap. CO2 was delivered using 1 kg dry ice, hung above a CDC light trap, as per standard sampling protocols. MTPE+/−CO2 combinations were randomised between 4 trap positions over three nights. Traps were placed at least 50 m apart to manage interference and were set between 5 pm and 7 am each night. Trap catches were subsequently returned to the laboratory, counted and identified as “Anopheles farauti s.l” or “other”.
As CO2 is a known mosquito attractant, all catches were compared to CO2 alone.

A. aegypti antennae = assay: Electroantennogram (EAG), non bloodfed females; parameters: species or system Aedes aegypti; details: n=5
Method: as §1, §2, §3

[9] = dilution 0.0001 (10^-4)% in mineral oil
[10] = dilution 0.01 (10^-2)% in mineral oil

C=CC(O)CCCCC (stereo not shown) [1-octen-3-ol, reference compound]
EAG response, comparison among tested chemicals (C. annulirostis antennae): strongest response | EPG response compared to mineral oil control [1]: did not | EAG response [2]: significant EAG response | EAG response [3]: significant EAG response | EPG response compared to mineral oil control [4]: did not | EAG response compared to mineral oil control [5]: significantly responded | EAG response compared to mineral oil control [6]: significantly responding

C=CCSC [AMS, Allyl methyl sulphide]
Concentration of greatest activation response (Anopheles stephensi [7]; against clean air, tested 10^-2 to 10^-5%): 0.00001 % v/v | Activation (against clean air) (Anopheles stephensi [7]; dilution 0.00001 (10^-5)% in mineral oil): caused activation and Yes | Activation (against clean air) (Anopheles stephensi [7]; [9]): Yes | Activation (against clean air) (Anopheles stephensi [7]; [10]): Yes | EPG response compared to mineral oil control [4]: significant responses | Attractiveness relative to 1-octen-3-ol/CO2 (Anopheles stephensi [8]; at 0.00001%): twice | Attraction (against CO2 + 1-octen-3-ol) (Anopheles stephensi [8]; dilution 0.00001 (10^-5)%, An. stephensi females): Yes

O=C=O [CO2, carbon dioxide, reference compound]
Total mosquito catch numbers (Total mosquito): 206 and 233 and 298 | EPG response compared to mineral oil control [1]: significant responses | EPG response compared to mineral oil control [4]: significant responses

CSCCCO [MTPL, 3-methylthio-1-propanol]
EAG response, comparison among tested chemicals (C. annulirostis antennae): strongest response | Concentration range over which an activation response was initiated (Anopheles stephensi [7]; against clean air): 0.00001-0.01% | Activation (against clean air) (Anopheles stephensi [7]; [9]): Yes | Activation (against clean air) (Anopheles stephensi [7]; dilution 0.001 (10^-3)% in mineral oil): Yes | Activation (against clean air) (Anopheles stephensi [7]; [10]): Yes | EAG response, comparison among tested chemicals (A. aegypti antennae): strongest response | EPG response compared to mineral oil control [4]: did not | Attractiveness relative to 1-octen-3-ol/CO2 (Anopheles stephensi [8]; at 0.01%): 1.5
